#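 Test compounds were applied to cells in 96-well plates for 48 hours at 5 doses. Abbreviation: GI50, concentration required for 50% inhibition of growth. Definition used: TGI = concentration required for complete inhibition of growth.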
# What was measured:
# Experiment in all cases: growth of human tumour cells (NCI), 48 h
# [1] = system: UACC-62 melanoma
# [2] = system: ACHN renal
# [3] = system: RXF 393 renal
# [4] = system: SNB-75 CNS
# [5] = system: HOP-92 NSCLC
# [6] = system: A498 renal
# [7] = system: KM12 colon
# [8] = system: M14 melanoma
# [9] = system: OVCAR-8 ovarian
# [10] = system: MCF7 breast
Compound,TGI [1] [µM],TGI [2] [µM],TGI [3] [µM],TGI [4] [µM],TGI [5] [µM],TGI [6] [µM],TGI [7] [µM],TGI [8] [µM],TGI [9] [µM],TGI [10] [µM],GI50 [1] [µM],GI50 [2] [µM],GI50 [3] [µM],GI50 [4] [µM],GI50 [5] [µM],GI50 [6] [µM],GI50 [7] [µM],GI50 [8] [µM],GI50 [9] [µM],GI50 [10] [µM]
C=C1CC2(C[C@@H](c3ccccc3)O[C@@H](c3ccccc3)C2)OC1=O (stereo partly drawn),7.7,9.01,3.55,14.3,9.81,23.5,15.5,3.34,7.48,5.73,–,–,–,–,–,–,–,–,–,–
Cc1nc2cnc3cc(F)c(-c4ccc(Oc5ncccn5)cc4Cl)cc3c2n1[C@H]1CCN(C(=O)CO)C[C@@H]1F,0.0875,> 100,10.9,36.2,3.5,> 84.9,> 100,0.882,> 100,> 58.2,0.0134,8.19,2.02,12,0.403,4.58,0.0405,0.0155,7.35,6.51
CC(C)[C@@]12C[C@@H](OC(=O)COC(=O)/C=C/c3ccccc3)[C@@](C)(O1)[C@@H]1CC[C@@H](C)[C@H]1[C@@H]2OC(=O)/C=C/c1ccccc1,> 100,0.443,> 100,> 100,> 100,0.401,> 100,> 100,> 100,> 100,> 100,0.0591,0.618,> 100,> 64.9,< 0.0441,> 100,> 100,0.173,> 100
CC1=CCC(OC(=O)C(C)(C)CCC(O)(C(=O)OC2(C(C)C)CCC3(C)OC3C2)C(C)C)(C(C)C)CC1 (stereo not drawn),1.11,0.311,1.25,1.41,1.57,0.935,1.6,1.46,15.5,0.448,0.298,0.107,0.587,0.0258,0.371,0.0508,0.793,0.654,0.611,0.121
CCc1cccc2c3c(sc12)C(c1ccc(Cl)cc1)C(C#N)=C(N)O3 (stereo not drawn),5.27,14.3,0.976,0.718,6.92,1.52,13.1,4.79,11,4.66,0.351,0.622,0.258,0.195,0.753,0.224,0.447,0.472,0.869,0.334
C=C(C)[C@@H]1CC[C@]2(C(=O)NCCNCCNCCN)CC[C@]3(C)[C@H](CC[C@@H]4[C@@]5(C)CC[C@H](O)C(C)(C)[C@@H]5CC[C@]43C)[C@@H]12,23,27.3,27.2,27.6,19.7,64.7,26.2,28.7,47.1,29.3,9.29,12,13.2,11.1,4.61,19.6,6.81,11,18.8,13.2
NC(=O)c1cc([N+](=O)[O-])c(Cl)c([N+](=O)[O-])c1,7.13,3.37,3.11,17.8,4.18,26.8,16.3,4.72,3.63,4.06,2.43,1.87,1.69,4.63,1.96,13.8,4.69,1.91,1.87,1.97
COc1ccc(-c2cc(-c3ccccc3)nc(N3CCN(CCNc4ccnc5cc(Cl)ccc45)CC3)n2)cc1,11.2,14.4,2.27,28.8,3.35,20.7,4.04,–,–,3.45,3.48,3.8,0.842,14.9,1.14,8.15,1.94,–,–,1.71
COC1(O)C(=O)c2ccccc2OC1(OC)c1ccccc1 (stereo not drawn),> 100,> 100,> 100,> 100,> 100,> 100,–,> 100,> 100,> 100,–,–,–,–,–,–,–,–,–,–
COc1ccn2c(C(C)=O)cc(C(=O)c3ccc4c(c3)Sc3ccccc3N4)c2c1,> 100,> 100,> 100,> 100,> 100,0.251,> 27.3,> 100,> 100,> 100,0.0894,0.145,0.228,0.0714,–,0.064,0.0874,0.0853,0.14,0.0893
NC1=C(Br)C(=O)c2ncccc2C1=O,0.713,1.62,1.32,0.664,3.06,7.99,2.7,2.03,2.24,1.99,–,–,–,–,–,–,–,–,–,0.367
COC(=O)c1cc(-c2cc(OC)c(OC)c(OC)c2)[nH]c1N/N=C/c1c(Cl)cccc1Cl,16.2,9.17,31.4,4.62,7.48,2.46,6.94,40.1,20.3,53,1.47,0.963,7.45,0.941,0.857,0.683,0.801,8.6,1.48,1.77
O=C(/C=C/c1cccs1)c1ccc(Nc2nc(Nc3ccc(F)cc3)nc(Nc3ccc(F)cc3)n2)cc1,> 100,> 100,75.1,70.4,57.8,> 100,45.2,> 100,51.2,46.2,> 100,86.5,23.3,22.5,25.8,9.24,16.3,29.7,21.7,14
O=C1/C(=C/c2ccc([N+](=O)[O-])o2)Oc2ccc(Br)cc21,4.09,3.77,3.21,52.9,3.1,30.1,13,7.01,9.32,5.17,1.84,1.85,1.68,15.2,1.52,15.9,3.85,2.68,3.01,2.05
COc1ccc(C(=O)COc2cccc(/C=C3\CSc4ccccc4C3=O)c2)cc1,3.3,3.86,5.39,18.4,9.08,32,3.05,4.01,6.71,2.22,1.72,1.93,2.42,4.85,2.4,16.5,1.56,2.01,2.65,0.537
c1cc(CCN2CCCCC2)ccn1,> 100,> 100,> 100,> 100,> 100,> 100,> 100,> 100,> 100,> 100,–,–,–,–,–,–,–,–,–,–
N#Cc1c(N)nc(N2CCOCC2)c(C#N)c1-c1ccc(Cl)cc1,> 100,–,45.1,55.9,78.4,36.3,–,> 100,> 100,> 100,23,–,0.475,14.5,9,8.11,–,44.6,28,23.2
Cn1ccc2c(c1=O)C(=O)c1nccc3c1c-2nc1ccccc13,2.93,2.99,2.95,2.43,20.4,25.9,–,3.52,–,2.34,1.54,1.59,1.49,1.17,1.81,12.5,–,1.84,–,0.871
COc1ccc2c(c1)c(-c1nc(-c3c[nH]c4ncccc34)cs1)cn2CCCCN1CCOCC1,3.93,3.4,3.38,2.85,4.17,3.17,3.96,3.62,–,3.56,1.87,1.79,1.73,1.31,1.67,0.217,1.93,1.81,–,1.56
C/C(=C\c1ccn(-c2ccc(N)c(F)c2)n1)[C@@H]1C[C@@H]2O[C@]2(C)CCC[C@H](C)[C@H](O)[C@@H](C)C(=O)C(C)(C)[C@@H](O)CC(=O)O1,> 50,> 50,0.109,0.0725,> 44.4,0.267,> 50,–,> 50,> 50,0.0517,0.234,0.0119,< 0.005,0.0119,< 0.005,0.00857,–,0.0239,0.00601
